“Also recorded” adds a separate entry of the source. Structures can show the parent of a compound that is named as a salt.
Test system: Saccharomyces cerevisiae
Assay: High-Life (High throughput replicative Lifespan measurement) flow cytometry assay in MEP yeast
Assay type: cell-based
Details: 10 μM, 24 hours in culture, 3-4 replicate wells, repeat of screen hits
Method: Cells were labeled with NHS-fluorescein as described above, then diluted to 20 cells/μL in media. 80 μL/well was aliquoted to 384-well plates, which were covered with a breathable membrane and placed on a shaker platform in a humidified incubator. After 3 hours, the plates were removed from the incubator and each well was treated with 20 μL pre-warmed, 30° C. 5 μM β-estradiol in media. In the case of ibuprofen or compound-treated wells, the compound was diluted in this volume at a 5× concentration to achieve a final concentration of 10 μM, or 100 μM for ibuprofen. The plates were then returned to the incubator. At indicated times, one plate was removed from the incubator and placed on an autosampler cooled to 8° C. attached to a Stratedigm flow cytometer. The cytometer was set to automatically add and mix 20 μL of aqueous solution containing 60 μg/mL CF405M-WGA (Biotium 29028) and propidium iodide (Sigma P4864) prior to acquiring 80 μL of sample for each well.
In order to test the lifespan of model organisms on both a large-scale and with quick turn-around, a massively multiplexed method was developed to measure replicative lifespan in the short-lived model organisms Saccharomyces cerevisiae. The protocol uses green-fluorescent labeling to identify progenitor cells, red-fluorescent labeling to differentiate non-viable cells, and blue-fluorescent labeling of bud scars to determine replicative age (FIG. 1). Each parameter is measured using a flow cytometer.
To achieve high throughput, the measurement system was automated, and the assay was performed in 384-well plates. The assay was performed using an autosampler-equipped flow cytometer, in a volume of 100 μL. Growth of even a single cell and its progeny in such a small volume will result in nutrient starvation before the natural replicative lifespan is exhausted; therefore to circumvent this issue, High-Life experiments were performed in the background of the Mother Enrichment Program (MEP) (Lindstrom and Gottschling, Genetics. 2009 October; 183(2):413-22). MEP strains express a CRE recombinase fused to an estrogen-binding domain for only a short time after birth. In the presence of β-estradiol, the recombinase translocates to the nucleus where it can excise two essential genes that have been modified to contain the exogenous LoxP sequence. Addition of β-estradiol to the media thus renders newborn daughters inviable without affecting existing mother cells, preventing exponential growth of the cell population and nutrient depletion (FIG. 2A).
The High-Life method was then tested to determine if it was suitable to screening for compounds that extend replicative lifespan. […] The effect of these compounds on High-Life readings was assayed after 24 hours in culture at 10 μM concentration. As a positive control, ibuprofen was used.

SMILES | average High-Life readings (progenitor fraction viable vs CF405M intensity) relative to controls
N.N.[Cl][Pt][Cl] [cisplatin] | at least slightly above controls
O=C(O)c1cc(=O)c2c(OCC(O)COc3cccc4oc(C(=O)O)cc(=O)c34)cccc2o1 [cromolyn sodium] | at least slightly above controls
CN1CCc2cccc3c2[C@H]1Cc1ccc(O)c(O)c1-3 [e hydrochloride] | at least slightly above controls
N=C(N)N/N=C/c1c(Cl)cccc1Cl [guanabenz acetate] | at least slightly above controls
Cc1ccc(Cl)c(Nc2ccccc2C(=O)O)c1Cl [meclofenamate sodium] | at least slightly above controls
O=[N+]([O-])c1ccc(O)c2ncccc12 [nitroxoline, 8-hydroxy-5-nitroquinoline] | at least slightly above controls
[H]/N=C(\N/C(=N/[H])Nc1ccc(Cl)cc1)NC(C)C [proguanil hydrochloride] | at least slightly above controls
Cn1c([N+](=O)[O-])cnc1COC(N)=O [ronidazole] | at least slightly above controls
CC(=O)OCC(=O)NCCCOc1cccc(CN2CCCCC2)c1 [roxatidine acetate hydrochloride] | at least slightly above controls

Same assay, conditions: 100 μM ibuprofen vs untreated, multiple time points 0-48 h

SMILES | replicative lifespan (High-Life)
CC(C)Cc1ccc(C(C)C(=O)O)cc1 (stereo not drawn) [ibuprofen] | increase in replicative lifespan was observed

Same assay, conditions: testing conditions identical to Example 3 (10 μM, 24 hours)

SMILES | lifespan extending properties (High-Life)
COc1c(C)c2c(c(O)c1CC1CC1(C)CCC(=O)O)C(=O)OC2 (stereo not drawn) [3-(2-((4-Hydroxy-6-methoxy-7-methyl-3-oxo-1,3-dihydroisobenzofuran-5-yl)methyl)-1-methylcyclopropyl)propanoic acid] | measurable lifespan extension in initial tests
COc1c(C)c2c(c(O)c1C/C=C(\C)CCC(=O)NCc1ccncc1)C(=O)OC2 [(E)-6-(4-hydroxy-6-methoxy-7-methyl-3-oxo-1,3-dihydroisobenzofuran-5-yl)-4-methyl-N-(pyridin-4-ylmethyl)hex-4-enamide] | at least some lifespan extending properties; also recorded: measurable lifespan extension in initial tests
Cn1cnc([N+](=O)[O-])c1Sc1ncnc2nc[nH]c12 [Azathioprine] | at least some lifespan extending properties
CN(C)CCCN1c2ccccc2Sc2ccc(Cl)cc21 [Chlorpromazine] | at least some lifespan extending properties
Cc1oncc1C(=O)Nc1ccc(C(F)(F)F)cc1 [Leflunomide] | at least some lifespan extending properties
CN(Cc1cnc2nc(N)nc(N)c2n1)c1ccc(C(=O)N[C@@H](CCC(=O)O)C(=O)O)cc1 [Methotrexate] | at least some lifespan extending properties
NC(=O)c1ncn([C@@H]2O[C@H](CO)[C@@H](O)[C@H]2O)c1O [Mizoribine] | at least some lifespan extending properties
Nc1nc2[nH]cc(CCc3ccc(C(=O)N[C@@H](CCC(=O)O)C(=O)O)cc3)c2c(=O)[nH]1 [Pemetrexed] | at least some lifespan extending properties
N=C(N)c1ccc(OCCCCCOc2ccc(C(=N)N)cc2)cc1 [Pentamidine] | at least some lifespan extending properties
CCN(CC)CCCC(C)Nc1c2ccc(Cl)cc2nc2ccc(OC)cc12 (stereo not drawn) [Quinacrine] | at least some lifespan extending properties
Cc1cc(NS(=O)(=O)c2ccc(N)cc2)no1 [Sulfamethoxazole] | at least some lifespan extending properties
COc1cc(Cc2cnc(N)nc2N)cc(OC)c1OC [Trimethoprim] | at least some lifespan extending properties

Same assay, conditions: testing conditions identical to Example 3 (10 μM, 24 hours); listed as 3-(2-((4-Hydroxy-6-methoxy-7-methyl-2-oxo-1,3-dihydroisobenzofuran-5-yl)methyl)-

SMILES | lifespan extending properties (High-Life)
COc1c(C)c2c(c(O)c1CC1CC1(C)CCC(=O)O)C(=O)OC2 (stereo not drawn) [3-(2-((4-Hydroxy-6-methoxy-7-methyl-3-oxo-1,3-dihydroisobenzofuran-5-yl)methyl)-1-methylcyclopropyl)propanoic acid] | at least some lifespan extending properties

Test system: S. cerevisiae
Assay: not given
Assay type: cell-based
Details: 10 μM compound
Method: To obtain the single-cell level data for the age and generation-durations of replicatively aging mother cells, data reported in Liu, P., et al., Cell Rep. 634-644 (2015) was re-analyzed. The data was collected in the same media condition (CSM 2% glucose) as reported elsewhere herein. Cells were grown for ˜24 hours in CSM 2% glucose prior to loading to the microfluidic device. Once cells were loaded, media was swapped to provide CSM 2% glucose control media (untreated), media containing DMSO as a vehicle control (American Bio AB00435), media containing 10 μM terreic acid (Sigma SML0480), media containing 10 μM mycophenolic acid (Sigma M5255), or media containing another compound at the indicated concentration. An automated microscope was used to track […], and replicative lifespan was later determined by counting the number of daughters produced before death. In the case of compound validation, only newborn cells were included in the lifespan experiment. To compare the replicative lifespan of labeled and unlabeled cells, only cells that were present within the traps at the start of the experiment were included. For these experiments, cells were loaded to the microfluidic device at an increased rate of 100 μL/min to increase the number of trapped mother cells. Green fluorescent images were also taken at the start of the experiment to confirm that the cells were visibly labeled.
Differences in lifespan characteristics were assessed through Log-Rank test using MATLAB with a cut-off value of P=0.05. The script for Log-Rank test was downloaded from MATLAB. Differences in proteasome activity were assessed using the unpaired, two-tailed, parametric t-test function of the GraphPad Prism software.
The Longevity Placement Test (LPT) was designed as a mutually exclusive, collectively exhaustive test to determine the relationship of a longevity intervention to a known genetic regulator of lifespan. For a given intervention that extends lifespan, any of three possible relationships may exist relative to a known genetic regulator of lifespan. (1) The intervention may act to extend lifespan independently from the known regulator. (2) The […] may act downstream from the known regulator, converging on a single component of the known regulator's lifespan pathway. (3) The intervention may act upstream from or upon the known regulator, ultimately modulating lifespan through the genetic regulator.
In Step 1 of the LPT, the longevity intervention is applied to a strain in which a genetic regulator of lifespan is deleted. In the event that lifespan extension from the longevity intervention is observed in this background, only possibilities (1) and (2) above remain valid (FIG. 7B). If no lifespan extension is observed, then possibilities (2) and (3) remain valid. Possibility (2) cannot be ruled out in this step, since non-saturating action by the genetic regulator could leave room for lifespan extension by the longevity intervention, while saturating action would preclude it.
In Step 2 of the LPT, an epistatic agent, which prevents lifespan extension from the longevity agent, is applied to a strain in which some upstream member of the genetic regulator's lifespan pathway has been modified to extend lifespan. This step differentiates possibility (2) from the remaining possibility after Step 1. In the event that lifespan extension from the genetic regulator's pathway is suppressed by the epistatic agent, this determines that possibility (2) is correct. In the event that no epistasis is observed, the remaining possibility, (1) or (3), is correct (FIG. 7C).

SMILES | toxicity in Replicator RLS experiment
O=[N+]([O-])c1ccc(O)c2ncccc12 [nitroxoline, 8-hydroxy-5-nitroquinoline] | toxic and caused most cells to arrest immediately

Same assay, conditions: 10 μM, supplied to young yeast cells throughout lifespan, vs untreated control

SMILES | lifespan of yeast cells (Replicator validation)
N=C(N)N/N=C/c1c(Cl)cccc1Cl [guanabenz acetate] | extend the lifespan
[H]/N=C(\N/C(=N/[H])Nc1ccc(Cl)cc1)NC(C)C [proguanil hydrochloride] | extend the lifespan

Same assay, conditions: 10 μg/mL folinic acid with 10 μM proguanil, Replicator device

SMILES | suppression of the longevity effect of proguanil
Nc1nc(=O)c2c([nH]1)NCC(CNc1ccc(C(=O)N[C@@H](CCC(=O)O)C(=O)O)cc1)N2C=O (mixture of isomers) [folinic acid] | able to suppress the longevity effect of proguanil

— patent US20200108043A1, “COMPOUNDS AND COMPOSITIONS FOR EXTENDING LIFESPAN OF A SUBJECT” (YALE UNIVERSITY, priority 2017, published 2020)
